Laboratory results published in ChEMBL document CHEMBL2150939, “Synthesis and cytotoxicity of novel ursolic acid derivatives containing an acyl piperazine moiety” (Eur J Med Chem, 2012).
The source made the active and inactive calls. The rule behind the calls is not given here.

Columns and labels:
[1] = test system: MGC-803; test: Growth inhibition of human MGC803 cells at 10 uM after 72 hrs by MTT assay; assay type: functional; settings: MGC-803, 72 h, read-out: GI
[2] = test system: Bcap37; test: Growth inhibition of human Bcap37 cells at 10 uM after 72 hrs by MTT assay; assay type: functional; settings: Bcap37, 72 h, read-out: GI
[3] = Growth inhibition of mouse NIH/3T3 cells at 10 uM after 72 hrs by MTT assay; assay type: cell-based, NIH3T3; settings: read-out: GI
[4] = test system: MGC-803; test: Antiproliferative activity against human MGC803 cells after 72 hrs by MTT assay; assay type: functional, cell-based; settings: MGC-803, 72 h
[5] = test system: Bcap37; test: Antiproliferative activity against human Bcap37 cells after 72 hrs by MTT assay; assay type: functional, cell-based; settings: Bcap37, 72 h, read-out: IC50
[6] = test system: MGC-803; test: Induction of apoptosis in human MGC803 cells assessed as pyknosis at 10 uM after 48 hrs by acridine orange/ethidium bromide staining; assay type: functional, cell-based
[7] = test system: MGC-803; test: Induction of apoptosis in human MGC803 cells assessed as condensed chromatin at 10 uM after 48 hrs by Hoechst 33258 staining; assay type: functional, cell-based
[8] = test system: MGC-803; test: Induction of apoptosis in human MGC803 cells assessed as DNA fragmentation at 10 uM after 24 hrs by TUNEL assay; assay type: functional, cell-based
[9] = test system: MGC-803; test: Induction of apoptosis in human MGC803 cells assessed as membrane blebbing at 10 uM after 48 hrs by acridine orange/ethidium bromide staining; assay type: functional, cell-based
[10] = test system: MGC-803; test: Induction of apoptosis in human MGC803 cells assessed as cell budding at 10 uM after 48 hrs by acridine orange/ethidium bromide staining; assay type: functional, cell-based
[11] = test system: MGC-803; test: Induction of apoptosis in human MGC803 cells assessed as pyknosis at 5 uM after 12 to 48 hrs by acridine orange/ethidium bromide staining; assay type: functional, cell-based
[12] = test system: MGC-803; test: Induction of apoptosis in human MGC803 cells assessed as early apoptotic cells at 5 uM after 24 hrs by acridine orange/ethidium bromide staining; assay type: functional, cell-based
[13] = test system: MGC-803; test: Induction of apoptosis in human MGC803 cells assessed as late apoptotic cells at 5 uM after 48 hrs by acridine orange/ethidium bromide staining; assay type: functional, cell-based
[14] = test system: MGC-803; test: Induction of apoptosis in human MGC803 cells assessed as condensed chromatin at 5 uM after 12 to 48 hrs by Hoechst 33258 staining; assay type: functional, cell-based
[15] = test system: MGC-803; test: Induction of apoptosis in human MGC803 cells assessed as DNA fragmentation at 2.5 to 10 uM after 24 hrs by TUNEL assay; assay type: functional, cell-based
[16] = test system: MGC-803; test: Induction of apoptosis in human MGC803 cells assessed as early and late apoptotic level at 10 uM after 12 hrs by annexinV/FITC-PI staining-based flow cytometric analysis; assay type: functional
[17] = test system: MGC-803; test: Induction of apoptosis in human MGC803 cells assessed as early and late apoptotic level at 10 uM after 24 hrs by annexinV/FITC-PI staining-based flow cytometric analysis; assay type: functional
[18] = test system: MGC-803; test: Induction of apoptosis in human MGC803 cells assessed as early and late apoptotic level at 10 uM after 36 hrs by annexinV/FITC-PI staining-based flow cytometric analysis; assay type: functional
[19] = test system: MGC-803; test: Induction of apoptosis in human MGC803 cells at 10 uM by annexinV/FITC-PI staining-based flow cytometric analysis; assay type: functional, cell-based; settings: TDE = time-dependent effect
[20] = test system: MGC-803; test: Induction of apoptosis in human MGC803 cells assessed as membrane blebbing at 5 uM after 12 to 48 hrs by acridine orange/ethidium bromide staining; assay type: functional, cell-based
[21] = test system: MGC-803; test: Induction of apoptosis in human MGC803 cells assessed as cell budding at 5 uM up to 48 hrs by acridine orange/ethidium bromide staining; assay type: functional, cell-based
[22] = test system: MGC-803; test: Induction of apoptosis in human MGC803 cells assessed as cell budding at 5 uM at 24 hrs by acridine orange/ethidium bromide staining

C[C@H]1[C@H](C)CC[C@]2(C(=O)O)CC[C@]3(C)C(=CC[C@@H]4[C@@]5(C)CC[C@H](O)C(C)(C)[C@@H]5CC[C@]43C)[C@H]12 [URSOLIC ACID]
inhibition of growth at 10 µM [1]: 28.9%
inhibition of growth at 10 µM [2]: 11.9%
inhibition at 72 h, 10 µM [3]: 14%
IC50 [4]: 24.3 µM
IC50 [5]: 28.7 µM
Activity [6]: Active
Activity [7]: Active
Activity [8]: Active
Activity [9]: Active
Activity [10]: Active

C[C@H]1[C@H](C)CC[C@]2(C(=O)OCCN3CCN(C(=O)c4c(Cl)cccc4Cl)CC3)CC[C@]3(C)C(=CC[C@@H]4[C@@]5(C)CC[C@H](O)C(C)(C)[C@@H]5CC[C@]43C)[C@H]12
inhibition of growth at 10 µM [1]: 95.6%
inhibition of growth at 10 µM [2]: 76%
inhibition at 72 h, 10 µM [3]: 32.1%
IC50 [4]: 2.5 µM
IC50 [5]: 9.24 µM
Activity [11]: Active
Activity [12]: Active
Activity [13]: Active
Activity [14]: Active
Activity [15]: Active
Activity [16]: 23.57%
Activity [17]: 28.01%
Activity [18]: 33.35%
Activity [19]: tde
Activity [20]: Active
Activity [21]: Active
Activity [22]: Active
